Test results as given in ChEMBL document CHEMBL1140892, “Synthesis and evaluation of rifabutin analogs against Mycobacterium avium and H(37)Rv, MDR and NRP Mycobacterium tuberculosis” (Bioorg Med Chem, 2009).
≈ marks a conversion by molar mass, not a printed value. Calls of active or inactive are those of the source. No cut-off for these calls is given here.

Legend:
[1] = tested on: Mycobacterium avium; assay: Antimycobacterial activity against Mycobacterium avium 1581 at 0.2 mg/mL after 15 days relative to control; assay type: functional; settings: 360 h
[2] = tested on: Mycobacterium avium; assay: Antimycobacterial activity against Mycobacterium avium 1581 at 0.4 mg/mL after 15 days relative to control; assay type: functional; settings: for inhibition at 400 µg/mL: 360 h
[3] = tested on: Mycobacterium tuberculosis; assay: Antimycobacterial activity against Mycobacterium tuberculosis H37Rv after 7 days by resazurin method; assay type: functional; settings: 168 h
[4] = tested on: Mycobacterium tuberculosis; assay: Antimycobacterial activity against non-replicating Mycobacterium tuberculosis assessed as luciferase activity incubated for 8 days measured after 24 hrs of incubation by low oxygen recover assay; assay type: functional
[5] = tested on: Mycobacterium tuberculosis; assay: Antimycobacterial activity against non-replicating Mycobacterium tuberculosis assessed as colony forming unit after 8 days; assay type: functional; settings: 192 h
[6] = tested on: Vero; assay: Cytotoxicity against african green monkey Vero cells after 72 hrs by MTS assay; assay type: cell-based; settings: Chlorocebus sabaeus
[7] = Selectivity index, ratio of IC50 for african green monkey Vero cells to MIC for non-replicating Mycobacterium tuberculosis; assay type: functional
[8] = tested on: Mycobacterium tuberculosis; assay: Antimycobacterial activity against Mycobacterium tuberculosis H37Rv infected in BALB/c mouse assessed as reduction of bacterial load in lungs at 5 mg/kg/day, intragastrically after 1 month relative to control; assay type: functional, organism-based
[9] = tested on: Mycobacterium tuberculosis; assay: Antimycobacterial activity against Mycobacterium tuberculosis H37Rv infected in BALB/c mouse assessed as reduction of bacterial load in lungs at 25 mg/kg/day, intragastrically after 1 month relative to control; assay type: functional, organism-based
[10] = tested on: Mycobacterium avium; assay: Antimycobacterial activity against Mycobacterium avium 1581 at 0.1 mg/mL after 15 days relative to control; assay type: functional; settings: 360 h
[11] = tested on: Mycobacterium tuberculosis; assay: Antimycobacterial activity against Mycobacterium tuberculosis H37Rv infected in BALB/c mouse assessed as lungs affected by pneumonia at 25 mg/kg/day, intragastrically after 1 month by histopathology study relative to control; assay type: functional, organism-based

SMILES | inhibition at 200 µg/mL [1] | inhibition at 400 µg/mL [2] | MIC [3] | MIC [4] | MBC [5] | IC50 [6] | Selectivity ratio [7] | Activity [8] | Activity [9] | Activity [2] | inhibition at 100 µg/mL [10] | Activity [11]
CO[C@H]1/C=C/O[C@@]2(C)Oc3c(C)c(O)c4c(c3C2=O)C2=NC3(CCN(CC(C)C)CC3)NC2=C(NC(=O)/C(C)=C\C=C\[C@H](C)[C@H](O)[C@@H](C)[C@@H](O)[C@@H](C)[C@H](O)[C@@H]1C)C4=O | 91% | > 99% | 0.025 µg/mL (≈ 0.0311 µM) | 0.29 µM (≈ 0.233 µg/mL) | 0.18 µM (≈ 0.145 µg/mL) | > 46.6 µM | >161 | – | – | – | – | –
CO[C@H]1/C=C/O[C@@]2(C)Oc3c(C)c(O)c4c(c3C2=O)C2=NC3(CCN(CC(C)C)CC3)N(C(C)=O)C2=C(NC(=O)/C(C)=C\C=C\[C@H](C)[C@H](O)[C@@H](C)[C@@H](O)[C@@H](C)[C@H](OC(C)=O)[C@@H]1C)C4=O | > 99% | > 99% | < 0.013 µg/mL | 0.28 µM (≈ 0.249 µg/mL) | 0.18 µM (≈ 0.16 µg/mL) | > 92.7 µM | >331 | Active | Active | – | – | –
CO[C@H]1/C=C/O[C@@]2(C)Oc3c(C)c(O)c4c(c3C2=O)C2=NC3(CC[N+]([O-])(CC(C)C)CC3)NC2=C(NC(=O)/C(C)=C\C=C\[C@H](C)[C@H](O)[C@@H](C)[C@@H](O)[C@@H](C)[C@H](O)[C@@H]1C)C4=O (stereo partly specified) | – | – | 0.6 µg/mL (≈ 0.731 µM) | – | – | – | – | – | – | inactive | – | –
CO[C@H]1/C=C/O[C@@]2(C)Oc3c(C)c(O)c4c(c3[C@H]2O)C2=NC3(CCN(CC(C)C)CC3)NC2=C(NC(=O)/C(C)=C\C=C\[C@H](C)[C@H](O)[C@@H](C)[C@@H](O)[C@@H](C)[C@H](O)[C@@H]1C)C4=O | – | – | 0.2 µg/mL (≈ 0.248 µM) | – | – | – | – | – | – | inactive | – | –
CO[C@H]1/C=C/O[C@@]2(C)Oc3c(C)c(O)c4c(c3[C@H]2O)C2=NC3(CCN(CC(C)C)CC3)N(C(C)=O)C2=C(NC(=O)/C(C)=C\C=C\[C@H](C)[C@H](O)[C@@H](C)[C@@H](O)[C@@H](C)[C@H](OC(C)=O)[C@@H]1C)C4=O | 54% | > 99% | 0.1 µg/mL (≈ 0.112 µM) | – | – | – | – | – | – | – | – | –
CO[C@H]1/C=C/O[C@@]2(C)Oc3c(C)c(O)c4c(c3C2=O)C2=NC3(CC[N+]([O-])(CC(C)C)CC3)NC2=C(NC(=O)/C(C)=C\C=C\[C@H](C)[C@H](O)[C@@H](C)[C@@H](O)[C@@H](C)[C@H](OC(C)=O)[C@@H]1C)C4=O (stereo partly specified) | – | – | 0.2 µg/mL (≈ 0.232 µM) | 0.44 µM (≈ 0.38 µg/mL) | 0.28 µM (≈ 0.242 µg/mL) | > 35.8 µM | >82 | – | – | inactive | – | –
CCCCCCCCCCCCCCCC(=O)N1C2=C3NC(=O)/C(C)=C\C=C\[C@H](C)[C@H](O)[C@@H](C)[C@@H](O)[C@@H](C)[C@H](OC(C)=O)[C@H](C)[C@@H](OC)/C=C/O[C@@]4(C)Oc5c(C)c(O)c(c(c5C4=O)C2=NC12CCN(CC(C)C)CC2)C3=O | – | – | 0.1 µg/mL (≈ 0.0921 µM) | 1.08 µM (≈ 1.17 µg/mL) | 0.14 µM (≈ 0.152 µg/mL) | > 34.8 µM | >32 | – | – | – | – | –
CO[C@H]1/C=C/O[C@@]2(C)Oc3c(C)c(O)c4c(O)c(c(/C=N/N5CCN(C)CC5)c(O)c4c3C2=O)NC(=O)/C(C)=C\C=C\[C@H](C)[C@H](O)[C@@H](C)[C@@H](O)[C@@H](C)[C@H](OC(C)=O)[C@@H]1C [RIFAMPIN] | – | – | – | 1.41 µM (≈ 1.16 µg/mL) | 0.39 µM (≈ 0.321 µg/mL) | 138 µM | 98 | – | – | – | – | –
CO[C@H]1/C=C/O[C@@]2(C)Oc3c(C)c(O)c4c(c3C2=O)C2=NC3(CCN(CC(C)C)CC3)NC2=C(NC(=O)/C(C)=C\C=C\[C@H](C)[C@H](O)[C@@H](C)[C@@H](O)[C@@H](C)[C@H](OC(C)=O)[C@@H]1C)C4=O [RIFABUTIN] | > 99% | – | < 0.013 µg/mL | 0.08 µM (≈ 0.0678 µg/mL) | 0.05 µM (≈ 0.0424 µg/mL) | > 46.6 µM | >582 | – | – | – | > 99% | –
CO[C@H]1/C=C/O[C@@]2(C)Oc3c(C)c(O)c4c(c3[C@H]2O)C2=NC3(CC[N+]([O-])(CC(C)C)CC3)NC2=C(NC(=O)/C(C)=C\C=C\[C@H](C)[C@H](O)[C@@H](C)[C@@H](O)[C@@H](C)[C@H](OC(C)=O)[C@@H]1C)C4=O (stereo partly specified) | 44% | 53% | 0.6 µg/mL (≈ 0.694 µM) | – | – | – | – | – | – | – | – | –
C=CCCCCCCCCC(=O)N1C2=C3NC(=O)/C(C)=C\C=C\[C@H](C)[C@H](O)[C@@H](C)[C@@H](O)[C@@H](C)[C@H](OC(C)=O)[C@H](C)[C@@H](OC)/C=C/O[C@@]4(C)Oc5c(C)c(O)c(c(c5C4=O)C2=NC12CCN(CC(C)C)CC2)C3=O | 60% | > 99% | 0.1 µg/mL (≈ 0.0987 µM) | 0.08 µM (≈ 0.0811 µg/mL) | 0.08 µM (≈ 0.0811 µg/mL) | 36.9 µM | 462 | inactive | inactive | – | – | inactive
CO[C@H]1/C=C/O[C@@]2(C)Oc3c(C)c(O)c4c(c3[C@H]2O)C2=NC3(CCN(CC(C)C)CC3)NC2=C(NC(=O)/C(C)=C\C=C\[C@H](C)[C@H](O)[C@@H](C)[C@@H](O)[C@@H](C)[C@H](OC(C)=O)[C@@H]1C)C4=O [RIFABUTINOL] | 86% | > 99% | < 0.05 µg/mL | – | – | – | – | – | – | – | – | –
